Experimental data reported in patent publication US20260001928A1 (CORTERIA PHARMACEUTICALS, priority 2022, published 2026).
*1 amine or outer side, *2 acyl side, *3 side chain or, on linkers, in order; H or OH if unused. Where a SMILES comes first, the peptide text is derived from it. Side-chain parts run from the residue outwards. [ ]: non-standard residue; d: D form. The star is where a group is joined. C18 diacid = O=C(O)CCCCCCCCCCCCCCCCC(=O)*; γGlu = O=C(O)[C@H](CCC(=O)[*:2])N[*:1]; NMeI = CC[C@H](C)[C@H](NC)C(=O)O; Pentanoyl = CCCCC(=O)*; AEEA = NCCOCCOCC(=O)O; Aib = CC(C)(N)C(=O)O

Molecular target: T1, CFR1R receptor (Homo sapiens, UniProt P34998)
T1 construct: host or cells: CHO-K1 (clone 2)
T1 sequence (P34998 24-415): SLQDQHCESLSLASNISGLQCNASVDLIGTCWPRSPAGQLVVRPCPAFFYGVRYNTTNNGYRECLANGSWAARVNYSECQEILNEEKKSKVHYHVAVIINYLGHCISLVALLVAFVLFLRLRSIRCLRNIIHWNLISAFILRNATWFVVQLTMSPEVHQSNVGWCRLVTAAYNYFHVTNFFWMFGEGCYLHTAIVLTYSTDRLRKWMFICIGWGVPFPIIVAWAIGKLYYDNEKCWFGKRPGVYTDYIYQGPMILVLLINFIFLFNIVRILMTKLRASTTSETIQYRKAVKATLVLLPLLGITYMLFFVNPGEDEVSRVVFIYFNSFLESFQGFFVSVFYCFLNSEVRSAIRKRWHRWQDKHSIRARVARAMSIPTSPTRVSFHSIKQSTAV
Assay: Activity at anti-target CFR1R receptor, cAMP assay in CRF1R-overexpression CHO-K1 cells
Assay type: cell-based
Settings: 100% = Sauvagine at 100 nM
Description: Assessment of activity at anti-target CFR1R receptor is done using the same procedure as the one described for the TeloHEAC cell line. The CRF1R-overexpression CHO-K1 cell line clone 2 was purchased from PerkinElmer. Cells were grown in a 10 cm dish at 37° C./5% CO2 in medium (F12 (Hams)/10% FBS/400 μg/ml G418) to near confluence. At that stage, cells were harvested, resuspended to 10 million/mL in culture medium without G418 and with 10% DMSO. 1 mL vial aliquots were slowly frozen to −80° C. in isopropanol and then transferred in liquid nitrogen for storage. These vials were used to run the experiment following the procedure reported in the previous paragraph, except for the compound used in the control well to define the 100% activation (Sauvagine at 100 nM) and the cell density (final cell density: 4000 cells/well)

| Emax (% I) | SMILES |
| --- | --- |
| 15 | CC[C@H](C)[C@H](NC(C)=O)C(=O)N[C@H](C(=O)N[C@@H](CC(C)C)C(=O)N[C@@H](CO)C(=O)N[C@@H](CC(C)C)C(=O)N[C@@H](CC(=O)O)C(=O)N[C@@H](C(=O)N1CCC[C@H]1C(=O)N[C@H](C(=O)N[C@@H](CCCCN)C(=O)N[C@@H](CC(C)C)C(=O)N[C@@H](CCCCNC(=O)COCCOCCNC(=O)COCCOCCNC(=O)CC[C@H](NC(=O)CC[C@H](NC(=O)CCCCCCCCCCCCCCCCC(=O)O)C(=O)O)C(=O)O)C(=O)N[C@@H](CCC(N)=O)C(=O)N[C@H](C(=O)N[C@@H](CC(C)C)C(=O)N[C@@H](CC(C)C)C(=O)N[C@@H](CCCCN)C(=O)N[C@@H](CCC(N)=O)C(=O)N[C@@H](CCC(=O)O)C(=O)N[C@@H](CCCNC(=N)N)C(=O)N[C@@H](CCC(N)=O)C(=O)N[C@@H](CCCCN)C(=O)N[C@@H](CCCCN)C(=O)N[C@@H](CCC(N)=O)C(=O)N[C@@H](CCCNC(=N)N)C(=O)N[C@@H](CCC(=O)O)C(=O)N[C@@H](CCC(N)=O)C(=O)N[C@@H](C)C(=O)N[C@@H](CCC(=O)O)C(=O)N[C@@H](CCCCN)C(=O)N[C@@H](CC(N)=O)C(=O)NC(C)(C)C(=O)N[C@@H](CCC(N)=O)C(=O)N[C@H](C(=O)N[C@@H](CC(C)C)C(=O)N[C@@H](CCC(=O)O)C(=O)N[C@@H](CCC(N)=O)C(=O)N[C@H](C(N)=O)C(C)C)[C@@H](C)CC)[C@@H](C)CC)[C@@H](C)CC)C(C)C)C(C)C [compound 30] (Ac-IVLSLD[dV]PIKLK([AEEA-AEEA-γGlu-γGlu-C18 diacid])QILLKQERQKKQREQAEKN[Aib]QILEQV-NH2) |
| 14 | CC[C@H](C)[C@H](NC)C(=O)N[C@H](C(=O)N[C@@H](CC(C)C)C(=O)N[C@@H](CO)C(=O)N[C@@H](CC(C)C)C(=O)N[C@@H](CC(=O)O)C(=O)N[C@@H](C(=O)N1CCC[C@H]1C(=O)N[C@H](C(=O)N[C@@H](CCCCN)C(=O)N[C@@H](CC(C)C)C(=O)N[C@@H](CCCCNC(=O)COCCOCCNC(=O)COCCOCCNC(=O)CC[C@H](NC(=O)CC[C@H](NC(=O)CCCCCCCCCCCCCCCCC(=O)O)C(=O)O)C(=O)O)C(=O)N[C@@H](CCC(N)=O)C(=O)N[C@H](C(=O)N[C@@H](CC(C)C)C(=O)N[C@@H](CC(C)C)C(=O)N[C@@H](CCCCN)C(=O)N[C@@H](CCC(N)=O)C(=O)N[C@@H](CCC(=O)O)C(=O)N[C@@H](CCCNC(=N)N)C(=O)N[C@@H](CCC(N)=O)C(=O)N[C@@H](CCCCN)C(=O)N[C@@H](CCCCN)C(=O)N[C@@H](CCC(N)=O)C(=O)N[C@@H](CCCNC(=N)N)C(=O)N[C@@H](CCC(=O)O)C(=O)N[C@@H](CCC(N)=O)C(=O)N[C@@H](C)C(=O)N[C@@H](CCC(=O)O)C(=O)N[C@@H](CCCCN)C(=O)N[C@@H](CC(N)=O)C(=O)NC(C)(C)C(=O)N[C@@H](CCC(N)=O)C(=O)N[C@H](C(=O)N[C@@H](CC(C)C)C(=O)N[C@@H](CCC(=O)O)C(=O)N[C@@H](CCC(N)=O)C(=O)N[C@H](C(N)=O)C(C)C)[C@@H](C)CC)[C@@H](C)CC)[C@@H](C)CC)C(C)C)C(C)C [compound 31] (H-[NMeI]VLSLD[dV]PIKLK([AEEA-AEEA-γGlu-γGlu-C18 diacid])QILLKQERQKKQREQAEKN[Aib]QILEQV-NH2) |
| 5 | CCCCC(=O)N[C@H](C(=O)N[C@@H](CC(C)C)C(=O)N[C@@H](CO)C(=O)N[C@@H](CC(C)C)C(=O)N[C@@H](CC(=O)O)C(=O)N[C@@H](C(=O)N1CCC[C@H]1C(=O)N[C@H](C(=O)N[C@@H](CCCCN)C(=O)N[C@@H](CC(C)C)C(=O)N[C@@H](CCCCNC(=O)COCCOCCNC(=O)COCCOCCNC(=O)CC[C@H](NC(=O)CC[C@H](NC(=O)CCCCCCCCCCCCCCCCC(=O)O)C(=O)O)C(=O)O)C(=O)N[C@@H](CCC(N)=O)C(=O)N[C@H](C(=O)N[C@@H](CC(C)C)C(=O)N[C@@H](CC(C)C)C(=O)N[C@@H](CCCCN)C(=O)N[C@@H](CCC(N)=O)C(=O)N[C@@H](CCC(=O)O)C(=O)N[C@@H](CCCNC(=N)N)C(=O)N[C@@H](CCC(N)=O)C(=O)N[C@@H](CCCCN)C(=O)N[C@@H](CCCCN)C(=O)N[C@@H](CCC(N)=O)C(=O)N[C@@H](CCCNC(=N)N)C(=O)N[C@@H](CCC(=O)O)C(=O)N[C@@H](CCC(N)=O)C(=O)N[C@@H](C)C(=O)N[C@@H](CCC(=O)O)C(=O)N[C@@H](CCCCN)C(=O)N[C@@H](CC(N)=O)C(=O)NC(C)(C)C(=O)N[C@@H](CCC(N)=O)C(=O)N[C@H](C(=O)N[C@@H](CC(C)C)C(=O)N[C@@H](CCC(=O)O)C(=O)N[C@@H](CCC(N)=O)C(=O)N[C@H](C(N)=O)C(C)C)[C@@H](C)CC)[C@@H](C)CC)[C@@H](C)CC)C(C)C)C(C)C [compound 32] (Pentanoyl-VLSLD[dV]PIKLK([AEEA-AEEA-γGlu-γGlu-C18 diacid])QILLKQERQKKQREQAEKN[Aib]QILEQV-NH2) |

More lines, now with the values behind:

| SMILES | Emax (% I) |
| --- | --- |
| CC[C@H](C)[C@H](NC(C)=O)C(=O)N[C@H](C(=O)N[C@@H](CC(C)C)C(=O)N[C@@H](CO)C(=O)N[C@@H](CC(C)C)C(=O)N[C@@H](CC(=O)O)C(=O)N[C@@H](C(=O)N1CCC[C@H]1C(=O)N[C@H](C(=O)N[C@@H](CCCCN)C(=O)N[C@@H](CC(C)C)C(=O)N[C@@H](CCCCNC(=O)COCCOCCNC(=O)COCCOCCNC(=O)CC[C@H](NC(=O)CC[C@H](NC(=O)CCCCCCCCCCCCCCCCC(=O)O)C(=O)O)C(=O)O)C(=O)N[C@@H](CCC(N)=O)C(=O)NC(C)(C)C(=O)N[C@@H](CC(C)C)C(=O)N[C@@H](CC(C)C)C(=O)N[C@@H](CCCCN)C(=O)N[C@@H](CCC(N)=O)C(=O)N[C@@H](CCC(=O)O)C(=O)N[C@@H](CCCNC(=N)N)C(=O)N[C@@H](CCC(N)=O)C(=O)N[C@@H](CCCCN)C(=O)N[C@@H](CCCCN)C(=O)N[C@@H](CCC(N)=O)C(=O)N[C@@H](CCCNC(=N)N)C(=O)N[C@@H](CCC(=O)O)C(=O)N[C@@H](CCC(N)=O)C(=O)N[C@@H](C)C(=O)N[C@@H](CCC(=O)O)C(=O)N[C@@H](CCCCN)C(=O)N[C@@H](CC(N)=O)C(=O)N[C@H](C(=O)N[C@@H](CCC(N)=O)C(=O)N[C@H](C(=O)N[C@@H](CC(C)C)C(=O)N[C@@H](CCC(=O)O)C(=O)N[C@@H](CCC(N)=O)C(=O)N[C@H](C(N)=O)C(C)C)[C@@H](C)CC)C(C)C)[C@@H](C)CC)C(C)C)C(C)C [compound 27] (Ac-IVLSLD[dV]PIKLK([AEEA-AEEA-γGlu-γGlu-C18 diacid])Q[Aib]LLKQERQKKQREQAEKNVQILEQV-NH2) | 7 |
| CC[C@H](C)[C@H](NC)C(=O)N[C@H](C(=O)N[C@@H](CC(C)C)C(=O)N[C@@H](CO)C(=O)N[C@@H](CC(C)C)C(=O)N[C@@H](CC(=O)O)C(=O)N[C@@H](C(=O)N1CCC[C@H]1C(=O)N[C@H](C(=O)N[C@@H](CCCCN)C(=O)N[C@@H](CC(C)C)C(=O)N[C@@H](CCCCNC(=O)COCCOCCNC(=O)COCCOCCNC(=O)CC[C@H](NC(=O)CC[C@H](NC(=O)CCCCCCCCCCCCCCCCC(=O)O)C(=O)O)C(=O)O)C(=O)N[C@@H](CCC(N)=O)C(=O)NC(C)(C)C(=O)N[C@@H](CC(C)C)C(=O)N[C@@H](CC(C)C)C(=O)N[C@@H](CCCCN)C(=O)N[C@@H](CCC(N)=O)C(=O)N[C@@H](CCC(=O)O)C(=O)N[C@@H](CCCNC(=N)N)C(=O)N[C@@H](CCC(N)=O)C(=O)N[C@@H](CCCCN)C(=O)N[C@@H](CCCCN)C(=O)N[C@@H](CCC(N)=O)C(=O)N[C@@H](CCCNC(=N)N)C(=O)N[C@@H](CCC(=O)O)C(=O)N[C@@H](CCC(N)=O)C(=O)N[C@@H](C)C(=O)N[C@@H](CCC(=O)O)C(=O)N[C@@H](CCCCN)C(=O)N[C@@H](CC(N)=O)C(=O)N[C@H](C(=O)N[C@@H](CCC(N)=O)C(=O)N[C@H](C(=O)N[C@@H](CC(C)C)C(=O)N[C@@H](CCC(=O)O)C(=O)N[C@@H](CCC(N)=O)C(=O)N[C@H](C(N)=O)C(C)C)[C@@H](C)CC)C(C)C)[C@@H](C)CC)C(C)C)C(C)C [compound 28] (H-[NMeI]VLSLD[dV]PIKLK([AEEA-AEEA-γGlu-γGlu-C18 diacid])Q[Aib]LLKQERQKKQREQAEKNVQILEQV-NH2) | 6 |
| CCCCC(=O)N[C@H](C(=O)N[C@@H](CC(C)C)C(=O)N[C@@H](CO)C(=O)N[C@@H](CC(C)C)C(=O)N[C@@H](CC(=O)O)C(=O)N[C@@H](C(=O)N1CCC[C@H]1C(=O)N[C@H](C(=O)N[C@@H](CCCCN)C(=O)N[C@@H](CC(C)C)C(=O)N[C@@H](CCCCNC(=O)COCCOCCNC(=O)COCCOCCNC(=O)CC[C@H](NC(=O)CC[C@H](NC(=O)CCCCCCCCCCCCCCCCC(=O)O)C(=O)O)C(=O)O)C(=O)N[C@@H](CCC(N)=O)C(=O)NC(C)(C)C(=O)N[C@@H](CC(C)C)C(=O)N[C@@H](CC(C)C)C(=O)N[C@@H](CCCCN)C(=O)N[C@@H](CCC(N)=O)C(=O)N[C@@H](CCC(=O)O)C(=O)N[C@@H](CCCNC(=N)N)C(=O)N[C@@H](CCC(N)=O)C(=O)N[C@@H](CCCCN)C(=O)N[C@@H](CCCCN)C(=O)N[C@@H](CCC(N)=O)C(=O)N[C@@H](CCCNC(=N)N)C(=O)N[C@@H](CCC(=O)O)C(=O)N[C@@H](CCC(N)=O)C(=O)N[C@@H](C)C(=O)N[C@@H](CCC(=O)O)C(=O)N[C@@H](CCCCN)C(=O)N[C@@H](CC(N)=O)C(=O)N[C@H](C(=O)N[C@@H](CCC(N)=O)C(=O)N[C@H](C(=O)N[C@@H](CC(C)C)C(=O)N[C@@H](CCC(=O)O)C(=O)N[C@@H](CCC(N)=O)C(=O)N[C@H](C(N)=O)C(C)C)[C@@H](C)CC)C(C)C)[C@@H](C)CC)C(C)C)C(C)C [compound 29] (Pentanoyl-VLSLD[dV]PIKLK([AEEA-AEEA-γGlu-γGlu-C18 diacid])Q[Aib]LLKQERQKKQREQAEKNVQILEQV-NH2) | 6 |
